Measurements as given in patent US6613875B1, “Cyclic peptide tube” (The Scripps Research Institute, priority 1993, dated 2003).
Square brackets hold non-standard residues; d marks the D form.

How the values were obtained:
[1] = Incorporation of peptide subunit into lipid bilayers of large unilamellar vesicles (absorption and fluorescence spectroscopy); format: physicochemical; conditions: aqueous liposomal suspensions
Excerpt: Incorporation of the peptide subunit into lipid bilayers using large unilamellar vesicles has been established by absorption and fluorescence spectroscopy. Formation of the hydrogen-bonded transmembrane channel structure in phosphatidylcholin liposomes has been supported by FT-IR spectroscopy (FIG. 24). The observed amide-I band at 1624 cm^−1 is not only similar to the carbonyl stretching frequencies found in other nanotube structures disclosed herein, but is also consistent with the infrared spectrum of gramicidin A in similar lipid bilayers. (E. Nabedryk et al in Biophys. J. (1982), vol. 38, pages 243-249. Furthermore, the observed N-H stretching frequency at 3272 cm^−1 strongly supports the formation of a tight network of hydrogen bonds with an average intersubunit distance of 4.7 Å.
The second control peptide cyclo[-(^MeN-D-Ala-Phe)4-] which has the desirable hydrophobic surface characteristics but lacks the propensity for participating in extended hydrogen bonding network, was also designed and tested for ion transport activity. The peptide design incorporates a novel N-methylation strategy on one face of the ring structure which predisposes the subunit toward a dimeric cylindrical structure (Ghadiri, M. R., Kobayashi, K., Granja, J. R., Chadha, R., and McRee, D. E. manuscript in preparation). Such a dimeric cylindrical ensemble is approximately 10 Å thick and can not span the lipid bilayer.
The ten-residue peptide subunit employed in the present study, cyclo[-Gln-(D-Leu-Trp)4-D-Leu-], is made up of largely tryptophan and leucine residues to favor its partitioning into and self-assembly in lipid bilayers. It was synthesized on solid support^5 and characterized by ^1H NMR spectroscopy and mass spectrometry. […] This has been supported by absorption and fluorescence spectrophotometry and gel permeation studies. Formation of a hydrogen bonded transmembrane channel structure in phosphatidylcholin liposomes has been established by FT-IR spectroscopy^6. […]

[2] = Single channel conductance, micro patch clamp on planar lipid bilayers; format: biochemical; conditions: for single channel conductance: peptide in the range of 10^−7 M in the subphase
Excerpt: FIG. 26 illustrates a 140 second continuous K^+ single channel conductance recording at 50 mV of the channel forming compounds indicated in FIG. 24. Open-closed transitions indicate gating mechanisms which may reflect structural flexibility or rapid assembly-disassembly of the tubular membrane channel structures. Short and long channel life times in the open state could be distinguished with values of t(short)=0.71±0.03 ms and t(long)=37.14±8.99 ms (total number of events 510) with an overall open probability P(O) of 0.29. Peptide concentration at the subphase was 1.0×10^−7 M. As is expected for any such self-assembling channel forming species, channel opening lifetimes show significant dependence on the peptide concentration. Raising the added peptide concentration in the subphase to 2.0×10^−5 M, produces open channel lifetimes of […] >30 seconds.
Formation of transmembrane channels was also inferred from its highly efficient proton transport activity. Vesicles were prepared having pH 6.5 inside and pH 5.5 in the outside bulk solution. The collapse of the imposed pH gradient in these vesicles, upon formation of the putative transmembrane channel structure, was studied by monitoring the fluorescence intensity of an entrapped pH-sensitive dye. (V.E. Carmichael et al, in J.Am. Chem. Soc. (1989), vol. 111, pages 767-769). […] Unilamellar vesicles were prepared by the reverse-phase evaporation using DPPC, OPPC, cholestrol in the ratio of 1:1:2 in a solution containing 5(6)-carboxyfluorescein (20 mM in phosphate/saline buffer: 137 mM NaCl, 2.6 mM KCl, 6.4 mM Na2HPO4, 1.4 mM KH2PO4, pH 6.5) according to the method of F. Szoka et al. in Proc. Natl. Acad. Sci. USA (1978), vol. 75, pages 4194-4198. Liposomes were then sized by multiple extrusions through Nucleopore® polycarbonate membranes (10 times, 50 psi, using 0.8 and 2×0.4 micron filter stacks) and the untrapped 5(6)-carboxyfluorescein was removed by size exclusion chromatography (Sephadex G-25 column 1×30 cm) using the same phosphate/saline buffer according to the method of F. Olson et al. in Biochim. Biophys. Acta (1979), vol. 557, pages 9-23. Vesicles formed in this way are approximately 150 nanometer in diameter as determined by electron microscopy. (R. R. C. New, Ed. Liposomes, Oxford university Press, 1990). In each experiment, 70 ml of the stock vesicle solution (3.5×10^−3 M in phospholipids) was added to pH 5.5 buffer (1.3 ml, 137 mM NaCl, 2.6 mM KCl, 6.4 Na2HPO4, 1.4 KH2PO4) and placed in a 1 cm quartz cuvett inside a stirring thermojacketed sample holder of the florescence instrument and equilibrated at 25° C. for 15 minutes with gentle stirring. To the cuvett, through an injector port, […] of the channel forming compounds in DMSO was added with continuous fluorescence monitoring at 520 nm (excitation at 470 nm). The observed data were then normalized for comparison into the fractional change in fluorescence ((I0−It)/(I0−I∞)) (V. E. Carmichael et al, in J.Am. Chem. Soc. (1989), vol. 111, pages 767-769)). […] The lipid bilayers used were formed on the tip of patch pipettes using a mixture of synthetic POPE: POPS (4:1) (1-palmitoyl-2-oleoyl-Sn-glycero-3-phosphatidylethano lamine and -serine). Five to 10 ml of the peptide solution (1.0×10^−7 or 2.0×10^−6 M in 25% DMSO in buffer solution containing 500 mM NaCl or KCl, 5 mM CaCl2, 10 mM HEPES, pH 7.5) was added to 150 ml subphase volume resulting in spontaneous partitioning of the peptide into the membrane. Ion channels formed spontaneously after peptide was added to the subphase of lipid bilayers. […] Data acquisition and analysis were performed on a Gateway 2000/486 computer using pClamp software package and TL-1 labmaster interface. Acquisition rate was 0.1 ms and data were filtered at 2 kHz.
The ultimate test in establishing and quantitating the transport efficiency of a membrane channel structure is to measure its single channel conductance using micro patch clamp techniques. […]

[3] = K^+ recording at 50 mV, peptide 1.0×10^−7 M in subphase, 510 events

| Substance | partitioning / incorporation into lipid bilayers [1] | ion transport rate / efficiency ([2]; single ion channel recordings) | single channel conductance ([2]; 500 mM KCl) [pS] | single channel conductance ([2]; 500 mM NaCl) | actual rate of channel-mediated ion transport ([2]; K^+) | overall open probability P(O) ([2]; K^+ recording at 50 mV, peptide 1.0×10^−7 M in subphase) | channel life time in the open state, t(long) [2, 3] [ms] | channel life time in the open state, t(short) [2, 3] [ms] | actual rate of channel-mediated ion transport ([2]; Na^+) | rate of ion transport relative to gramicidin A under similar conditions ([2]; gramicidin A value from literature) | dependence of single channel conductance on applied voltage ([2]; measured range of 10-100 mV) | open channel lifetimes ([2]; peptide concentration in the subphase raised to 2.0×10^−5 M) [s] | ion channel activity observed (membranes with activity) ([2]; symmetrical solutions of 500 mM NaCl or KCl, 5 mM CaCl2, 10 mM HEPES, pH 7.5) |
| --- | --- | --- | --- | --- | --- | --- | --- | --- | --- | --- | --- | --- | --- |
| cyclo[-Gln-(D-Leu-Trp)4-D-Leu-] (cyclo(Q[dL]W[dL]W[dL]W[dL]W[dL]); SMILES CC(C)C[C@H]1NC(=O)[C@H](CCC(N)=O)NC(=O)[C@@H](CC(C)C)NC(=O)[C@H](Cc2c[nH]c3ccccc23)NC(=O)[C@@H](CC(C)C)NC(=O)[C@H](Cc2c[nH]c3ccccc23)NC(=O)[C@@H](CC(C)C)NC(=O)[C@H](Cc2c[nH]c3ccccc23)NC(=O)[C@@H](CC(C)C)NC(=O)[C@H](Cc2c[nH]c3ccccc23)NC1=O) [10-residue cyclic peptide forming 10 Å pores that transport glucose] | rapid incorporation | > 10^7 ions.sec^−1 |  |  |  |  |  |  |  |  |  |  |  |
| cyclo[-(Trp-D-Leu)3-Gln-D-Leu-] (cyclo(W[dL]W[dL]W[dL]Q[dL]); SMILES CC(C)C[C@H]1NC(=O)[C@H](CCC(N)=O)NC(=O)[C@@H](CC(C)C)NC(=O)[C@H](Cc2c[nH]c3ccccc23)NC(=O)[C@@H](CC(C)C)NC(=O)[C@H](Cc2c[nH]c3ccccc23)NC(=O)[C@@H](CC(C)C)NC(=O)[C@H](Cc2c[nH]c3ccccc23)NC1=O) [eight residue ion channel forming cyclic peptide, approximately 7.5 Å pore] | rapid partitioning |  | ~65 | approximately 55 pS | 2.2×10^7 ion.sec^−1 | 0.29 | 37.14 ± 8.99 | 0.71 ± 0.03 | 1.8×10^7 ion.sec^−1 | three | independent of the applied voltage | > 30 | 14 out of 22 |
